US11530237B2, “Compositions and methods for treating CNS disorders” (Sage Therapeutics, Inc., priority 2014, dated 2022)

Assays:
[1] = tested on: PTZ-treated mice; test: Acute PTZ method (pentylenetetrazol-induced seizure assay); assay type: in vivo; conditions: Mus musculus, lowest dose with significant effect on latency to tonic seizures, PO, read-out: Anticonvulsive Effect Dose (minimal effective anticonvulsant dose)
Experimental: The anticonvulsant effect of test compounds were assessed in a pentylenetetazol-induced seizure assay in mice similar to methods described in Giardina & Gasior (Curr Protoc Pharmacol. 2009). Male CD-1 mice were housed in groups of five under controlled conditions (temperature of 22±2° C. and 12:12 light-dark cycle, lights on at 8:00 am) and water and food were available ad libitum. The mice were housed for 1 week prior to behavioral testing, at which time they weighed 25-35 g. Pentylenetetrazol (PTZ, Sigma) was dissolved in sterile 0.9% saline at a concentration of 12 mg/mL concentration for subcutaneous administration. Test compounds were formulated and administered via oral gavage or intraperitoneal injection at a predetermined time-point (typically 30 or 60 minutes) prior to PTZ injection. All solutions were made fresh and given in a volume corresponding to 10 ml/kg body weight.
Mice were acclimated to the test room for at least 30 min before compound administration. Mice were randomized into at least four test groups (vehicle and at least three doses of the test compound) with 10 mice per group. […] Following the drug pretreatment time the mice were injected s.c. with PTZ (120 mg/kg). Immediately following the PTZ injection, mice were individually placed into observation chambers (25×15×15 cm) and a three-channel timer was started. Each mouse was continuously observed for 30 min and the following behaviors were recorded by observers blinded to the treatments: 1) latency to clonic convulsions that persist for 3 sec and followed by an absence of righting reflex 2) latency to tonic convulsions, characterized by the rigid extension of all four limbs that exceeded a 90 degree angle with the body 3) latency to death 4) number of clonic and tonic convulsions. Data are presented as mean±S.E.M and one-way ‘nalysis of vari’nce with Dunnett's or Bonferroni's post-hoc test was used to detect significant differences in latency and number between the vehicle and dose group, p values<0.05 were regarded as statistically significant.

[2] = target: α4β3δ GABAA receptors (Homo sapiens (Human), UniProt P28472+P48169); test: Patch clamp electrophysiology (manual patch) of recombinant α4β3δ GABAA receptors in CHO cells; assay type: cell-based; conditions: 10 μM test article, GABA EC20 = 2 μM, read-out: GABA (α4β3δ) Manual patch in CHO, % efficacy at 10 μM
Experimental: (§1) Cellular electrophysiology is used to measure the pharmacological properties of our GABAA receptor modulators in heterologous cell systems. Each compound is tested for its ability to affect GABA mediated currents at a suhmaximal agonist dose (GABA EC20=2 μM). LTK cells are stably transfected with the α1β2γ2 subunits of the GABA receptor and CHO cells are transiently transfected with the α4β3δ subunits via the Lipofecatamine method. Cells were passaged at a confluence of about 50-80% and then seeded onto 35 mm sterile culture dishes containing 2 ml culture complete medium without antibiotics or antimycotics. Confluent clusters of cells are electrically coupled (Pritchett et al., Science, 1988, 242, 1306-1308). Because responses in distant cells are not adequately voltage clamped and because of uncertainties about the extent of coupling (Verdoom et al., Neuron 1990, 4, 919-928), cells were cultivated at a density that enables the recording of single cells (without visible connections to other cells).
(§2) Whole cell currents were measured with HEKA EPC-10 amplifiers using PatchMaster software or by using the high throughput QPatch platform (Sophion). Bath solution for all experiments contained (in mM): NaCl 137 mM, KCl 4 mM, CaCl2 1.8 mM, MgCl2 1 mM, HEPES 10 mM, D-Glucose 10 mM, pH (NaOH) 7.4. In some cases 0.005% cremophor was also added. Intracellular (pipette) solution contained: KCl 130 mM, MgCl2 1 mM, Mg-ATP 5 mM, HEPES 10 mM, EGTA 5 mM, pH 7.2. During experiments, cells and solutions were maintained at room temperature (19° C.-30° C.). For manual patch clamp recordings, cell culture dishes were placed on the dish holder of the microscope and continuously perfused (1 ml/min) with bath solution. After formation of a Gigaohm seal between the patch electrodes and the cell (-ipette resistance range: 2.5 MΩ-6.0 MΩ; seal resistance range:>1 GΩ) the cell membrane across the pipette tip was ruptured to assure electrical access to the cell interior (whole-cell patch-configuration). For experiments using the QPatch system, cells were transferred as suspension to the QPatch system in the bath solution and automated whole cell recordings were performed.
(§3) Cells were voltage clamped at a holding potential of −80 mV. For the analysis of test articles, GABA receptors were stimulated by 2 μM GABA after sequential pre-incubation of increasing concentrations of the test article. Pre-incubation duration was 30 s and the duration of the GABA stimulus was 2s. Test articles were dissolved in DMSO to form stock solutions (10 mM). Test articles were diluted to 0.01, 0.1, 1, and 10 μM in bath solution. All concentrations of test articles were tested on each cell. The relative percentage potentiation was defined as the peak amplitude in response to GABA EC20 in the presence of the test article divided by the peak amplitude in response to GABA EC20 alone, multiplied by 100. For Table 2. GABAA receptors α1β2γ2 and α4β3δ% efficacy: “A” 10-100, “B”>100-500, “C”>500; D indicates the data is not available or has not been determined.

[3] = target: α1β2γ2 GABAA receptors (Homo sapiens (Human), UniProt P14867+P47870); test: Patch clamp electrophysiology (QPatch) of recombinant α1β2γ2 GABAA receptors in LTK cells; assay type: cell-based; conditions: 10 μM test article, GABA EC20 = 2 μM, read-out: GABA (α1β2γ2) Qpatch in Ltk, % efficacy at 10 μM
Experimental: as §1, §2, §3

Row | SMILES | minimal effective dose [1] [mg/kg] | Emax at 10 µM [2] [%] | Emax at 10 µM [3] [%]
1 | C[C@@]1(O)CC[C@@]2(C)[C@H](CC[C@@H]3[C@@H]2CC[C@]2(C)[C@@H](C(=O)Cn4ccc(C(F)(F)F)n4)CC[C@@H]32)C1 [Compound 19] | ≤ 1 |  | 
2 | C[C@@]1(O)CC[C@@]2(C)[C@H](CC[C@@H]3[C@@H]2CC[C@]2(C)[C@@H](C(=O)Cn4nc5cc(F)cc(F)c5n4)CC[C@@H]32)C1 [Compound 28] | ≤ 1 |  | 
3 | Cc1nnnn1CC(=O)[C@H]1CC[C@H]2[C@@H]3CC[C@@H]4C[C@](C)(O)CC[C@]4(C)[C@H]3CC[C@]12C [Compound 31] | ≥ 5 |  | 
4 | Cc1nnn(CC(=O)[C@@H]2CC[C@H]3[C@@H]4CC[C@@H]5C[C@](C)(O)CC[C@]5(C)[C@H]4CC[C@]23C)n1 [Compound 32] | ≤ 1 |  | 
5 | C[C@@]1(O)CC[C@@]2(C)[C@H](CC[C@@H]3[C@@H]2CC[C@]2(C)[C@@H](C(=O)Cn4ncnn4)CC[C@@H]32)C1 [Compound 54] | 1 to 5 |  | 
6 | C[C@@]1(O)CC[C@@]2(C)[C@H](CC[C@@H]3[C@@H]2CC[C@]2(C)[C@@H](C(=O)Cn4ccnc4C#N)CC[C@@H]32)C1 [Compound 143] |  | > 500 | > 500
7 | COC[C@@]1(O)CC[C@@]2(C)[C@@H](CC[C@@H]3[C@@H]2CC[C@]2(C)[C@@H](C(=O)Cn4nnnc4C)CC[C@@H]32)C1 [Compound 193] | 1 to 5 | > 500 | > 500
8 | COC[C@@]1(O)CC[C@@]2(C)[C@@H](CC[C@@H]3[C@@H]2CC[C@]2(C)[C@@H](C(=O)Cn4nnc(C)n4)CC[C@@H]32)C1 [Compound 194] | ≤ 1 | > 500 | 
9 | Cc1nnn(CC(=O)[C@H]2CC[C@H]3[C@@H]4CC[C@H]5C[C@](C)(O)CC[C@]5(C)[C@H]4CC[C@]23C)n1 [Compound 206] | ≤ 1 | > 500 | 
10 | C[C@@]1(O)CC[C@@]2(C)[C@H](CC[C@@H]3[C@@H]2CC[C@]2(C)[C@@H](C(=O)Cn4nccn4)CC[C@@H]32)C1 [Compound 207] | ≥ 5 | > 500 | 
